Experimental data published in ChEMBL document CHEMBL1201862, “PubChem BioAssay data set” (2004).
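The compound was tested at five concentrations on cells cultured in 96-well plates, with a 48-hour exposure period. The concentration for 50% growth inhibition is given as GI50.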 Activity calls are given as the source filed them. No stated cut-off is given here; in the data, active = GI50 up to about 1.1 µM and inactive = higher.

Legend:
Test in all cases: DTP human tumour cell line panel, 48 h
SNB-75 = system: SNB-75
SF-295 = system: SF-295
Malme-3M = system: Malme-3M
IGROV-1 = system: IGROV-1
M14 = system: M14
SNB-19 = system: SNB-19
OVCAR-5 = system: OVCAR-5
SN12C = system: SN12C
TK-10 = system: TK-10
HCT-15 = system: HCT-15
HOP-62 = system: HOP-62
NCI-H226 = system: NCI-H226
786-0 = system: 786-0
PC-3 = system: PC-3
NCI/ADR-RES = system: NCI/ADR-RES
SF-539 = system: SF-539
KM12 = system: KM12
OVCAR-3 = system: OVCAR-3
Hs-578T = system: Hs-578T
MDA-MB-435 = system: MDA-MB-435
EKVX = system: EKVX
MDA-N = system: MDA-N
UO-31 = system: UO-31
HCC 2998 = system: HCC 2998
ACHN = system: ACHN
CCRF-CEM = system: CCRF-CEM
SR = system: SR
SK-MEL-2 = system: SK-MEL-2
OVCAR-4 = system: OVCAR-4
COLO 205 = system: COLO 205
RPMI-8226 = system: RPMI-8226
K562 = system: K562
HL-60 = system: HL-60
SK-MEL-28 = system: SK-MEL-28
A549 = system: A549
SF-268 = system: SF-268
LOX IMVI = system: LOX IMVI
HT-29 = system: HT-29
OVCAR-8 = system: OVCAR-8
CAKI-1 = system: CAKI-1
NCI-H23 = system: NCI-H23
U-251 = system: U-251
SK-MEL-5 = system: SK-MEL-5
RXF 393 = system: RXF 393
NCI-H522 = system: NCI-H522
SW-620 = system: SW-620
BT-549 = system: BT-549
NCI-H460 = system: NCI-H460
UACC-62 = system: UACC-62
HCT-116 = system: HCT-116
UACC-257 = system: UACC-257
SK-OV-3 = system: SK-OV-3
MOLT-4 = system: MOLT-4
HOP-92 = system: HOP-92
A498 = system: A498
T47D = system: T47D
MDA-MB-231 = system: MDA-MB-231
MCF7 = system: MCF7
DU-145 = system: DU-145

SMILES: CC(=O)Oc1c2oc3cc(O)c(O)cc3c2c(OC(C)=O)c2oc3cc(O)c(O)cc3c12 [POLYOZELLIN]
- GI50 (SNB-75): 15.8 µM (inactive)
- GI50 (SF-295): 16.7 µM (inactive)
- GI50 (Malme-3M): 17.1 µM (inactive)
- GI50 (IGROV-1): 18.2 µM (inactive)
- GI50 (M14): 23.4 µM (inactive)
- GI50 (SNB-19): 23.7 µM (inactive)
- GI50 (OVCAR-5): 25.5 µM (inactive)
- GI50 (SN12C): 20.9 µM (inactive)
- GI50 (TK-10): 18.9 µM (inactive)
- GI50 (HCT-15): 25.2 µM
- GI50 (HOP-62): 16.1 µM (inactive)
- GI50 (NCI-H226): 19.2 µM (inactive)
- GI50 (786-0): 25.2 µM (inactive)
- GI50 (PC-3): 19.8 µM (inactive)
- GI50 (NCI/ADR-RES): 35.3 µM (inactive)
- GI50 (SF-539): 23 µM (inactive)
- GI50 (KM12): 20.3 µM (inactive)
- GI50 (OVCAR-3): > 10 µM (inactive)
- GI50 (Hs-578T): 12.2 µM (inactive)
- GI50 (MDA-MB-435): 1.82 µM (inactive)
- GI50 (EKVX): 20.6 µM (inactive)
- GI50 (MDA-N): 23.6 µM (inactive)
- GI50 (UO-31): 21 µM (inactive)
- GI50 (HCC 2998): 16.9 µM (inactive)
- GI50 (ACHN): 20.8 µM (inactive)
- GI50 (CCRF-CEM): 2.57 µM (inactive)
- GI50 (SR): 4.4 µM (inactive)
- GI50 (SK-MEL-2): 20.5 µM (inactive)
- GI50 (OVCAR-4): 19.8 µM (inactive)
- GI50 (COLO 205): 15.4 µM (inactive)
- GI50 (RPMI-8226): > 10 µM (inactive)
- GI50 (K562): 19.1 µM (inactive)
- GI50 (HL-60): 3.08 µM (inactive)
- GI50 (SK-MEL-28): 21.1 µM (inactive)
- GI50 (A549): 35 µM (inactive)
- GI50 (SF-268): 20.7 µM (inactive)
- GI50 (LOX IMVI): 24.5 µM (inactive)
- GI50 (HT-29): 26.4 µM (inactive)
- GI50 (OVCAR-8): 20.2 µM (inactive)
- GI50 (CAKI-1): 29.2 µM (inactive)
- GI50 (NCI-H23): 2.39 µM (inactive)
- GI50 (U-251): 1.56 µM (inactive)
- GI50 (SK-MEL-5): 18.6 µM (inactive)
- GI50 (RXF 393): 18.1 µM (inactive)
- GI50 (NCI-H522): 10.3 µM (inactive)
- GI50 (SW-620): 23.2 µM (inactive)
- GI50 (BT-549): 17.1 µM (inactive)
- GI50 (NCI-H460): 18.6 µM (inactive)
- GI50 (UACC-62): 16.6 µM (inactive)
- GI50 (HCT-116): 18.7 µM (inactive)
- GI50 (UACC-257): 19.4 µM (inactive)
- GI50 (SK-OV-3): 20.8 µM (inactive)
- GI50 (MOLT-4): 2.64 µM (inactive)

SMILES: CC1(CO)OC(n2cnc3cncnc32)CC1O (centres undefined)
- GI50 (HOP-92): > 100 µM (inactive)
- GI50 (SF-295): > 100 µM (inactive)
- GI50 (Malme-3M): > 100 µM (inactive)
- GI50 (IGROV-1): > 100 µM (inactive)
- GI50 (M14): > 100 µM (inactive)
- GI50 (SNB-19): > 100 µM (inactive)
- GI50 (OVCAR-5): > 100 µM (inactive)
- GI50 (SN12C): > 100 µM (inactive)
- GI50 (TK-10): > 100 µM (inactive)
- GI50 (HCT-15): > 100 µM
- GI50 (HOP-62): > 100 µM (inactive)
- GI50 (NCI-H226): > 100 µM (inactive)
- GI50 (786-0): > 100 µM (inactive)
- GI50 (A498): > 100 µM (inactive)
- GI50 (PC-3): > 100 µM (inactive)
- GI50 (T47D): > 100 µM (inactive)
- GI50 (NCI/ADR-RES): > 100 µM (inactive)
- GI50 (SF-539): > 100 µM (inactive)
- GI50 (KM12): > 100 µM (inactive)
- GI50 (OVCAR-3): > 100 µM (inactive)
- GI50 (MDA-MB-231): > 100 µM (inactive)
- GI50 (MDA-MB-435): > 100 µM (inactive)
- GI50 (EKVX): > 100 µM (inactive)
- GI50 (MDA-N): > 100 µM (inactive)
- GI50 (UO-31): > 100 µM (inactive)
- GI50 (HCC 2998): > 100 µM (inactive)
- GI50 (ACHN): > 100 µM (inactive)
- GI50 (CCRF-CEM): > 100 µM (inactive)
- GI50 (SR): > 100 µM (inactive)
- GI50 (SK-MEL-2): > 100 µM (inactive)
- GI50 (OVCAR-4): > 100 µM (inactive)
- GI50 (COLO 205): > 100 µM (inactive)
- GI50 (RPMI-8226): > 100 µM (inactive)
- GI50 (K562): > 100 µM (inactive)
- GI50 (HL-60): > 100 µM (inactive)
- GI50 (SK-MEL-28): > 100 µM (inactive)
- GI50 (A549): > 100 µM (inactive)
- GI50 (SF-268): > 100 µM (inactive)
- GI50 (HT-29): > 100 µM (inactive)
- GI50 (OVCAR-8): > 100 µM (inactive)
- GI50 (CAKI-1): > 100 µM (inactive)
- GI50 (NCI-H23): > 100 µM (inactive)
- GI50 (U-251): > 100 µM (inactive)
- GI50 (SK-MEL-5): > 100 µM (inactive)
- GI50 (RXF 393): > 100 µM (inactive)
- GI50 (NCI-H522): > 100 µM (inactive)
- GI50 (SW-620): > 100 µM (inactive)
- GI50 (BT-549): > 100 µM (inactive)
- GI50 (NCI-H460): > 100 µM (inactive)
- GI50 (UACC-62): > 100 µM (inactive)
- GI50 (MCF7): > 100 µM (inactive)
- GI50 (DU-145): > 100 µM (inactive)
- GI50 (HCT-116): > 100 µM (inactive)
- GI50 (UACC-257): > 100 µM (inactive)
- GI50 (SK-OV-3): > 100 µM (inactive)
- GI50 (MOLT-4): > 100 µM (inactive)
